Earlier results in patent US20040106561A1, “Health supplement” (Novogen Research Pty. Ltd., priority 1992, published 2004).

System: oestrogen receptors
Details: animal and in vitro studies

Which “oestrogenic/anti-oestrogenic activity and SHBG-stimulating capacity relative to daidzein and formononetin” value does the source give for O=c1c(-c2ccc(O)cc2)coc2cc(O)cc(O)c12 [genistein] here?
The value was “approximately 10 times”.

Same assay, conditions: in vitro and in vivo studies; descending order genistein, biochanin A, equol, daidzein, formononetin

With CC(C(=O)c1ccc(O)cc1O)c1ccc(O)cc1 (stereo not shown) [O-desmethylangolensin] as the compound, how does the oestrogenic activity read?
Its oestrogenic activity is “only very weakly oestrogenic”.

Which oestrogenic activity does the source give for COc1ccc(-c2coc3cc(O)cc(O)c3c2=O)cc1 [biochanin A] here?
Its oestrogenic activity is “oestrogenic activity”.

Which oestrogenic activity does the source give for O=c1c(-c2ccc(O)cc2)coc2cc(O)ccc12 [daidzein] here?
Its oestrogenic activity is “oestrogenic activity”.

For Oc1ccc([C@H]2COc3cc(O)ccc3C2)cc1 [equol], which oestrogenic activity is on record?
Its oestrogenic activity is “oestrogenic activity”.

For O=c1c(-c2ccc(O)cc2)coc2cc(O)cc(O)c12 [genistein], which oestrogenic activity is on record?
Its oestrogenic activity is “oestrogenic activity”.

With COc1cc2c(=O)c(-c3ccc(O)cc3)coc2cc1O [glycitein] as the compound, how does the oestrogenic activity read?
Its oestrogenic activity is “non-oestrogenic”.
